From patent US12409179B2 (GENEROS BIOPHARMA LTD., priority 2019, dated 2025)

Key:
[1] = system: Lewis rat adjuvant-induced arthritis model; assay: Embodiment 1: oral Nib1 and injected methotrexate in Lewis rat adjuvant-induced arthritis model (joint score, paw volume, AUC); format: in vivo
[2] = system: rat adjuvant-induced arthritis model; assay: Embodiment 2: oral Nib1 and medium-dose methotrexate in rat adjuvant-induced arthritis model (joint score, paw volume, AUC); format: in vivo, Lewis rat; details: MTX 0.5 mpk, Nib1 5 mpk, Nib1 5 mpk + MTX 0.5 mpk
[3] = system: adjuvant-induced arthritis in rats; assay: Embodiment 3: oral Nib1 and methotrexate in adjuvant-induced arthritis in rats (joint score, paw volume, AUC); format: in vivo, Lewis rat
[4] = rat, in vivo, po, 10 mg/kg
[5] = rat, in vivo
[6] = day 0, oral, Tofacitinib 5 mpk, MTX 0.05 mpk, Nib1 1 mpk, Nib1 1 mpk + MTX 0.05 mpk
[7] = day 8, oral, Tofacitinib 5 mpk, MTX 0.05 mpk, Nib1 1 mpk, Nib1 1 mpk + MTX 0.05 mpk
[8] = day 11, oral, Tofacitinib 5 mpk, MTX 0.05 mpk, Nib1 1 mpk, Nib1 1 mpk + MTX 0.05 mpk
[9] = day 15, oral, Tofacitinib 5 mpk, MTX 0.05 mpk, Nib1 1 mpk, Nib1 1 mpk + MTX 0.05 mpk
[10] = day 18, oral, Tofacitinib 5 mpk, MTX 0.05 mpk, Nib1 1 mpk, Nib1 1 mpk + MTX 0.05 mpk

## O=c1[nH]c2ccccc2n1C1CCN(CCCC(c2ccc(F)cc2)c2ccc(F)cc2)CC1 [Nib1, Pimozide]
[1]; methotrexate 0.5 mg/kg intraperitoneal once per week, Nib1 10 mg/kg oral once every two days
  the therapeutic effects compared with vehicle group (paw volume x time AUC %): 66.6%
[1]; methotrexate 0.5 mg/kg intraperitoneal, Nib1 10 mg/kg oral
  paw volume AUC relative to vehicle group, as fraction: 0.666
[2]; Embodiment 2, G2 = Vehicle, Tofacitinib 5 mpk
  Relative to G2 percentage (%) (AUC of changes in paw volume): 56.9%
[2]; Embodiment 2, Tofacitinib 5 mpk, in mL·day
  Total area (AUC of changes in paw volume): 21.32
[2]; day 0, Tofacitinib 5 mpk
  Clinical scoring of arthritis (sum of the scores of the quadrupedal joints), Average value: 0
  paw volume (right hind foot), Average value: 1.02 mL
[2]; day 7, Tofacitinib 5 mpk
  Clinical scoring of arthritis (sum of the scores of the quadrupedal joints), Average value: 0.63
  paw volume (right hind foot), Average value: 1.71 mL
[2]; day 13, Tofacitinib 5 mpk
  Clinical scoring of arthritis (sum of the scores of the quadrupedal joints), Average value: 1.75
  paw volume (right hind foot), Average value: 1.88 mL
[2]; day 15, Tofacitinib 5 mpk
  Clinical scoring of arthritis (sum of the scores of the quadrupedal joints), Average value: 5.50
  paw volume (right hind foot), Average value: 1.94 mL
[2]; day 17, Tofacitinib 5 mpk
  Clinical scoring of arthritis (sum of the scores of the quadrupedal joints), Average value: 6.75
  paw volume (right hind foot), Average value: 2.05 mL
[2]; day 20, Tofacitinib 5 mpk
  Clinical scoring of arthritis (sum of the scores of the quadrupedal joints), Average value: 7.00
  paw volume (right hind foot), Average value: 2.05 mL
[2]; day 22, Tofacitinib 5 mpk
  Clinical scoring of arthritis (sum of the scores of the quadrupedal joints), Average value: 7.25
  paw volume (right hind foot), Average value: 2.00 mL
[2]; day 24, Tofacitinib 5 mpk
  Clinical scoring of arthritis (sum of the scores of the quadrupedal joints), Average value: 7.25
  paw volume (right hind foot), Average value: 2.06 mL
[2]; day 27, Tofacitinib 5 mpk
  Clinical scoring of arthritis (sum of the scores of the quadrupedal joints), Average value: 7.00
  paw volume (right hind foot), Average value: 2.20 mL
[2]; day 29, Tofacitinib 5 mpk
  Clinical scoring of arthritis (sum of the scores of the quadrupedal joints), Average value: 6.88
  paw volume (right hind foot), Average value: 2.16 mL
[2]; day 31, Tofacitinib 5 mpk
  Clinical scoring of arthritis (sum of the scores of the quadrupedal joints), Average value: 7.13
  paw volume (right hind foot), Average value: 2.16 mL
[2]; day 34, Tofacitinib 5 mpk
  Clinical scoring of arthritis (sum of the scores of the quadrupedal joints), Average value: 6.88
  paw volume (right hind foot), Average value: 1.02 mL
[3]; Embodiment 3, G2 = Vehicle, oral, Tofacitinib 5 mpk, MTX 0.05 mpk, Nib1 1 mpk, Nib1 1 mpk + MTX 0.05 mpk
  Relative to G2 percentage (%) (AUC of changes in paw volume): 74.9%
[3]; Embodiment 3, methotrexate 0.05 mg/kg, Nib1 1 mg/kg
  change ratio of ΔAUC relative to the vehicle group, as fraction: 0.749
[3]; Embodiment 3, oral, Tofacitinib 5 mpk, MTX 0.05 mpk, Nib1 1 mpk, Nib1 1 mpk + MTX 0.05 mpk
  Area under the curve AUC (ml*day) of changes in paw volume: 14.26 mL·days
[3]; [6]
  Clinical scoring of arthritis (sum of the scores of the quadrupedal joints), Average value: 0.00
  volume of the right hind foot, Average value: 1.31 mL
[3]; [7]
  Clinical scoring of arthritis (sum of the scores of the quadrupedal joints), Average value: 0.78
  volume of the right hind foot, Average value: 1.44 mL
[3]; [8]
  Clinical scoring of arthritis (sum of the scores of the quadrupedal joints), Average value: 3.33
  volume of the right hind foot, Average value: 1.79 mL
[3]; day 13, oral, Tofacitinib 5 mpk, MTX 0.05 mpk, Nib1 1 mpk, Nib1 1 mpk + MTX 0.05 mpk
  Clinical scoring of arthritis (sum of the scores of the quadrupedal joints), Average value: 5.22
[3]; [9]
  Clinical scoring of arthritis (sum of the scores of the quadrupedal joints), Average value: 6.33
  volume of the right hind foot, Average value: 2.41 mL
[3]; [10]
  Clinical scoring of arthritis (sum of the scores of the quadrupedal joints), Average value: 7.89
  volume of the right hind foot, Average value: 2.73 mL
[3]; day 21, oral, Tofacitinib 5 mpk, MTX 0.05 mpk, Nib1 1 mpk, Nib1 1 mpk + MTX 0.05 mpk
  Clinical scoring of arthritis (sum of the scores of the quadrupedal joints), Average value: 8.56
[3]; day 22, oral, Tofacitinib 5 mpk, MTX 0.05 mpk, Nib1 1 mpk, Nib1 1 mpk + MTX 0.05 mpk
  volume of the right hind foot, Average value: 3.10 mL
[3]; day 24, oral, Tofacitinib 5 mpk, MTX 0.05 mpk, Nib1 1 mpk, Nib1 1 mpk + MTX 0.05 mpk
  Clinical scoring of arthritis (sum of the scores of the quadrupedal joints), Average value: 8.67
[4]
  changes in body weight over time (FIG. 1): lower than other groups, but there was no significant difference
[5]
  changes in body weight over time (Table 5, FIG. 5): decreased significantly in the initial stage, and gradually recovered in the later stage
